Assay results from PMC8305652, “Copper(II) Complexes Containing Natural Flavonoid Pomiferin Show Considerable In Vitro Cytotoxicity and Anti-inflammatory Effects” (International Journal of Molecular Sciences, 2021).

Experiments:
[1] = system: caspase 3 (Casp-3) in THP-1 cells; assay: Western blotting of apoptosis-related proteins; type: cell-based, human; conditions: THP-1, complexes 4 µM, 24 h, Western blot
Protocol: In addition to the above-mentioned methods, the Western blotting method was used to shed light on the mechanisms associated with caspase 3 activation in the THP-1 cells. Two and a half milliliters of floating THP-1 monocytes resuspended in a serum-free RPMI 1640 medium were seeded into 6-well plates at the concentration of 10^6 cells/mL. Two hours later, complexes 3 and 5 were added at the concentration level of 4 µM. After 24 h incubation, the cells were collected by centrifugation (3000 g/5 min/4 °C), washed by cold PBS and resuspended in an ice-cold lysis buffer (50 mM Tris-HCl pH 7.5, 1 mM EGTA, 1 mM EDTA, 1 mM sodium orthovanadate, 50 mM sodium fluoride, 5 mM sodium pyrophosphate, 270 mM sucrose) with Roche cOmplete protease inhibitors (Roche Diagnostics, Basel, Switzerland). The cell lysates were centrifuged at 3000 g/5 min/4 °C and supernatants were mixed with a 5x Laemmli buffer [containing 250 mM Tris-HCl pH 6.8, 10% (w/v) SDS, 30% (v/v) glycerol, 5% (v/v) β-mercaptoethanol, 0.04% (w/v) bromphenol blue] and incubated at 70 °C for 5 min. […] The membranes were incubated at 4 °C for 16 h with a primary anti-cleaved caspase 3 (p17) antibody at the dilution 1:1000 (Cell Signaling, Danvers, MA, USA; products No. 9664), and an Apoptosis WB Cocktail (Abcam, Cambridge, UK; product No. ab136812) at the dilution recommended by the provider to detect β-actin, cleaved poly-(ADP-ribose) polymerase (PARP) and pro-caspase 3. After washing in a TBST buffer, the secondary anti-rabbit IgG antibody (Sigma-Aldrich, product No. A0545) was diluted 1:2500 and applied to the membranes, which were then incubated for 1 h at the laboratory temperature (~22 °C). The amount of bound secondary antibody was determined using an ECL reagent (Bio-Rad, Hercules, CA, USA). Chemiluminescence was detected using a Syngene PXi4 chemiluminescence imaging system (Cambridge, UK).

[2] = system: HuCCA-1, KB, HeLa and T47D cell lines; parameters: method as in PMID 21922909; conditions: 48 h incubation, range over cell lines; cited from earlier work
[3] = system: NF-κB; parameters: method as in PMID 23947936; conditions: 1.25 µM; cited from earlier work

Row | Compound | levels of pro-caspase 3 (pro-Casp-3) [1] | proteolytically activated Casp-3 (verified by cleaved PARP-1) ([1]; cisplatin 10 µM) | ED50 [2] [nM] | NF-κB activation by inhibition of IκB degradation [3]
1 | (3-(3,4-dihydroxyphenyl)-8,8-dimethyl-6-(3-methylbut-2-en-1-yl)-4H,8H-benzo[1,2-b:3,4-b′]dipyran-4-one-5-olato-κ^2O4:O5)(dipyrido[3,2-a:2′,3′-c]phenazine–κ^2N4:N5)copper(II) nitrate methanol solvate [Complex 5] | dramatically decreased | only minor activity of Casp-3 |  | 
2 | CC(C)=CCc1c2c(c3occ(-c4ccc(O)c(O)c4)c(=O)c3c1O)C=CC(C)(C)O2 [pomiferin, 3-(3,4-dihydroxyphenyl)-5-hydroxy-8,8-dimethyl-6-(3-methylbut-2-ene-1-yl)-4H,8H-benzo[1,2-b:3,4-b′]dipyran-4-one] |  |  | 600 to 24000 | inhibited NF-κB activation
